The values below come from paper PMC6724035, “Evaluation of Tumor-Targeting Properties of an Antagonistic Bombesin Analogue RM26 Conjugated with a Non-Residualizing Radioiodine Label Comparison with a Radiometal-Labelled Counterpart” (Pharmaceutics, 2019).

Marks after values point to notes of the source that are not given here. Where no end group is shown, it is not given here.

The target in series [1] is GRPR (Homo sapiens, UniProt P30550). Briefly: biochemical. The method, then:
All experiments were performed in triplicate and 1 × 10^6 cells/dish were seeded one day before the experiment.

How the values of series [2] were obtained:
Lipophilicity was determined as the logarithm of partition coefficient, logP, of the radiolabelled compound between n-octanol and water. To determine the lipophilicity of both radioconjugates, 500 µL of n-octanol was added to a tube containing the same volume of Milli-Q water. 1 pmol (10 kBq) of radioconjugate was added. The mixture was vigorously vortexed for 1–2 min and then centrifuged. Aliquots of 100 μL were taken from each phase and their radioactivity was measured by an automated gamma-counter. The partition coefficient was calculated as the average log of a ratio of the radioactivity in organic and aqueous fractions. Each measurement was repeated in triplicate.

The next series in a line: in vivo. Conditions: mouse, iv, 40 pmol, Uptake, 40 pmol i.v.; for tissue uptake at 0.5 h: 0.5 h after injection; for tissue uptake at 3 h: 3 h after injection; for tissue uptake at 24 h: 24 h after injection. The method, then:
(§1) Animal studies were planned and performed in agreement with EU Directive 2010/63/EU for animal experiments and Swedish national legislation concerning protection of laboratory animals. Experiments were approved by the Ethics Committee for Animal Research in Uppsala (C4/16, 26 February 2016). Biodistribution studies were performed in female BALB/C nu/nu mice purchased from Scanbur A/S (Karlslunde, Denmark). GRPR-expressing xenografts were established by subcutaneous injection of 5 × 10^6 PC-3 cells/mouse in the right hind leg of mice 3 weeks before the experiment. The animals were randomized into groups of four mice for each data point.
(§2) Mice were euthanized followed by dislocation of their neck at 0.5 h after injection and blood samples were collected by heart puncture. At 3 and 24 h after injection, mice were euthanized by an intraperitoneal injection of anaesthetic solution (20 µL of solution per gram of body weight: Ketalar, 10 mg/mL; Rompun, 1 mg/mL) followed by heart puncture. Salivary glands, thyroid, lung, liver, spleen, pancreas, stomach, small intestine, kidneys, tumour, muscle, and bone were collected and weighed. The organ radioactivity was measured in a gamma-counter and uptake values of organs were calculated as percentage of injected dose per gram tissue (% ID/g). To test the in vivo binding specificity, a group of mice was co-injected with 7.5 nmol of non-labelled peptide (NOTA-PEG4-RM26), and biodistribution was measured at 0.5 h after injection.

The subject of series [3] is GRPR-expressing PC-3 tumour xenograft. Briefly: in vivo. Conditions: 0.5 h after injection; 40 pmol i.v.; non-blocked. The method, then:
as §1, §2

For series [4] the test system is unchanged. The conditions noted are these: 0.5 h after injection; co-injection of non-labelled NOTA-PEG4-RM26. The method, then: as §1
as §2, with “Salivary glands, thyroid, lung, liver, spleen, pancreas, stomach, small intestine, kidneys, tumour, muscle, and bone were collected and weighed.” left out

The test system of series [5] is GRPR. Also on record: method as in PMID 16818949, PMID 7876231. The conditions noted are these: within 20–40 min; cited from earlier work.
The mark [6] stands for this setting: small intestine, small intestine.

Sequence of GRPR (Homo sapiens, UniProt P30550) (P30550 whole entry): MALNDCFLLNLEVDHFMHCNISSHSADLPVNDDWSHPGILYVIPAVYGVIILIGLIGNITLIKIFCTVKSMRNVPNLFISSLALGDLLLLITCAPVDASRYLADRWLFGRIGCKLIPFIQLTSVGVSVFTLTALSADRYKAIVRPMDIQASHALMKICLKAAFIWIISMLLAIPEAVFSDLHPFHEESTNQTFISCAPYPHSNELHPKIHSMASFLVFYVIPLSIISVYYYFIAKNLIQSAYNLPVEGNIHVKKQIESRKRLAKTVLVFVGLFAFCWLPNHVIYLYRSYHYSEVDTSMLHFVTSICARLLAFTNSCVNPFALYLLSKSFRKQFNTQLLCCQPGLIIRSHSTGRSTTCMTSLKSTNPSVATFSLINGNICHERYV

As for `CC(C)C[C@H](NC(=O)C[C@H](O)[C@H](CC(C)C)NC(=O)[C@H](Cc1c[nH]cn1)NC(=O)CNC(=O)[C@@H](NC(=O)[C@H](C)NC(=O)[C@H](Cc1c[nH]c2ccccc12)NC(=O)[C@H](CCC(N)=O)NC(=O)[C@@H](Cc1ccccc1)NC(=O)COCCOCCNC(=O)[C@@H](N)Cc1ccc(O)cc1)C(C)C)C(N)=O` [Tyr-PEG2-RM26, Tyrosine-PEG2-[D-Phe^6, Sta^13, Leu^14] bombesin[6–14]], at GRPR [1], the IC50 came to 1.7 ± 0.3 nM.
In series [2], `CC(C)C[C@H](NC(=O)C[C@H](O)[C@H](CC(C)C)NC(=O)[C@H](Cc1c[nH]cn1)NC(=O)CNC(=O)[C@@H](NC(=O)[C@H](C)NC(=O)[C@H](Cc1c[nH]c2ccccc12)NC(=O)[C@H](CCC(N)=O)NC(=O)[C@@H](Cc1ccccc1)NC(=O)COCCOCCNC(=O)CN1CCN(CC(=O)O)CCN(CC(=O)O)CCN(CC(=O)O)CC1)C(C)C)C(N)=O` [[^111In]In-DOTA-PEG2-RM26, metal not drawn, reference compound] displayed a logP of -2.6 ± 0.4. The tissue uptake at 0.5 h in the series “in vivo” (blood, blood) was determined as 2.1 ± 0.8 %ID/g; in the series “in vivo” (bone, bone) it was 0.6 ± 0.3 %ID/g; in “in vivo” (kidney, kidney) it was 9.1 ± 2.9 %ID/g; in the series “in vivo” (liver, liver) it was 0.8 ± 0.2 %ID/g; in the series “in vivo” (lung, lung) it was 1.8 ± 0.4 %ID/g; in the series “in vivo” (muscle, muscle), 0.4 ± 0.1 %ID/g. The tissue uptake at 0.5 h was 6.5 ± 1.4 %ID/g in “in vivo” (pancreas, pancreas); 0.8 ± 0.2 %ID/g in the series “in vivo” (salivary gland, salivary gland); 1.5 ± 0.5 %ID/g in “in vivo” (setting [6]); 0.6 ± 0.2 %ID/g in “in vivo” (spleen, spleen); 2.9 ± 1.1 %ID/g in the series “in vivo” (stomach, stomach); 1.1 ± 0.5 %ID/g in the series “in vivo” (thyroid, thyroid). In the series “in vivo” (tumour, tumour, non-blocked), this compound gave a tissue uptake at 0.5 h of 13 ± 5 %ID/g. Besides, the tissue uptake at 3 h in “in vivo” (blood, blood) turned out to be 0.03 %ID/g; in the series “in vivo” (bone, bone), 0.05 ± 0.02 %ID/g; in the series “in vivo” (kidney, kidney), 2.4 ± 0.3 %ID/g; in the series “in vivo” (liver, liver), 0.2 %ID/g; in “in vivo” (lung, lung) it was 0.1 %ID/g; in “in vivo” (muscle, muscle) it was 0.02 %ID/g. The tissue uptake at 3 h in the series “in vivo” (pancreas, pancreas) is 0.2 %ID/g; in “in vivo” (salivary gland, salivary gland) it was 0.07 ± 0.02 %ID/g; in “in vivo” (setting [6]) it was 0.2 ± 0.1 %ID/g; in the series “in vivo” (spleen, spleen), 0.1 %ID/g; in the series “in vivo” (thyroid, thyroid) it was 0.1 %ID/g; in “in vivo” (tumour, tumour), 9.6 ± 0.6 %ID/g. Besides, the tissue uptake at 24 h in “in vivo” (blood, blood) came to 0.006 ± 0.002 %ID/g; in the series “in vivo” (liver, liver) it was 0.1 %ID/g; in the series “in vivo” (tumour, tumour) it was 3.6 ± 1.3 %ID/g. Moreover, the “Uptake, tumour” value in series [3] was 13.2 ± 4.8 ^a,h % ID/g. For the same compound, in series [4], the “Uptake in pancreas, blocked vs non-blocked group” value was “significant (p < 0.05) reduction”.
“[^125I]I-GRP: agonistic radioiodinated gastrin-releasing peptide (VPLPAGGGTVLTKMYPRGNHWAVGHLM; ends and bridges not checked; also: 125I radioiodination, position not given here; UniProt P07492 24-50, looked up)”: in the series with GRPR [5], the Internalization is 75–80%.
